Reference: patent US20230107216A1, “PANTETHEINE DERIVATIVES AND USES THEREOF” (Comet Therapeutics, Inc., priority 2018, published 2023)
Where two headings read alike, the source gives them in different places.

Experiments:
[1] = test system: Leigh Syndrome (LS) primary fibroblasts GM03672; test: NADP+/NADPH (NADP/NADPH-Glo), Leigh fibroblasts GM03672; format: cell-based; conditions: Homo sapiens, Fibroblast, 24h, read-out: Increase in Total NADP+ + NADPH
[2] = test system: Peripheral blood mononuclear cells co-cultured with venular endothelial cells (HUVEC) (LPS system); test: BioMAP LPS system; format: cell-based, human; conditions: procedure of Example 827
[3] = test system: Coronary artery smooth muscle cells (CASM3C system); test: BioMAP CASM3C system (IL-1β, TNFα, IFNγ); format: cell-based, human; conditions: for inhibition at 10 µM: Homo sapiens, 24 h, read-out: % decrease in Thrombomodulin
[4] = test system: Peripheral blood mononuclear cells co-cultured with B-cells (BT system); conditions: procedure of Example 829
[5] = test system: Very long-chain acyl-CoA dehydrogenase (VLCAD) primary fibroblasts GM17475; test: NADP+/NADPH (NADP/NADPH-Glo), VLCAD fibroblasts GM17475; format: cell-based; conditions: Homo sapiens, Fibroblast, VLCAD GM17475 P10, assay condition A (10 mM glucose, 2 mM L-glutamine, 1 mM pyruvate, 10% FBS), 24h, read-out: Increase in Total NADP+ + NADPH
Protocol: Primary adherent fibroblasts were cultured in minimum essential medium (MEM) (Gibco, 25030081) supplemented with 2 mM L-Glutamine (Gibco, 25030081), 15% fetal bovine serum (FBS) (Gibco, 26400044) and 1% penicillin/streptomycin (Gibco, 5140122) at 37° C. and 5% CO2. Cells were collected for either passaging or experiment at ˜70-80% confluence. Cells were obtained by trypsinization and seeded in cell culture microplates either white plate (Thermo Fisher Scientific, 152028) for luminescent measurement or black plate (Thermo Fisher Scientific, 165305) for fluorescent based read out for different assays listed below. Cells were obtained by trypsinization and […] were seeded and allowed to adhere for 16-18 hours to have confluency around 70-80% in the cell well with culture media. After 24 hours prior to measurements (37° C., 5% CO2) media was changed to Dulbecco's Modified Eagle Medium (DMEM, Agilent Seahorse cat #103575-100) with the appropriate supplements as stated below.
Primary fibroblasts assayed were Propionic Acidemia (PA) (GM03590 Coriell Institute for Medical Research, Tsi 6337 Trans-Hit Bio), Methylmalonic Acidemia (MMA) (Tsi 5224 Trans-Hit Bio), Subnormal activation of pyruvate dehydrogenase complex (PDH) (GM01503 Coriell Institute for Medical Research), Very long-chain acyl-CoA dehydrogenase (VLCAD) (GM17475), Leigh Syndrome (LS) (GM03672, GM13411 Coriell Institute for Medical Research), Pyruvate Carboxylase Deficiency (PC) (GM00444 Coriell Institute for Medical Research). 10 μM of Compounds were added for 2 hours in PA, MMA lines and for 24h for the other fibroblast lines.
Assay was performed according to manufacturer instructions (NADP+/NADPH-Glo Assay Promega, G9082). Assay required a plate for total measurement of NADP+/NADPH and a plate for individual measurement of NADP+ or NADPH. For every assay a 12-point standard curve is prepared ranging from 400 nM to 0.625 nM. Media is removed and replaced with 50 μl of PBS for both assays.
For individual NADP+/NADPH measurements, 50 μl of 1% DTAB (Sigma, D5047) (cell lysis reagent) in 0.2N NaOH was added to the plates and 100 μl of lysate was split into two plates with 50 μl each from which ratio of NADP/NADPH can be calculated. 25 μl of 0.4N HCl were added to the NADP+ plates and both NADP+ and NADPH plates were heated at 60° C. for 15 minutes. The acid and heat treatment destroyed NADPH allowing individual NADP+ measurements while heating in basic conditions destroys NADP+ allowing individual NADPH measurement. After 15 minutes plates were allowed to come to room temperature and Trizma base (Sigma, T1699) was added to the NADP+ plates to neutralize the acid and HCl Trizma hydrochloride (Sigma, T2694) was added to the NADPH plates. The NADNADPH glo reagent was prepared by adding 125 μl of NAD cycling substrate, 125 μl of reductase, 125 μl of reductase substrate, 125 μl NAD cycling enzyme to a total of the 25 ml of NAD GLO reagent. 1:1 ratio of total volume of reagent was added to the individual NADP+, NADPH measurements (total 100 μl) and 50 μl were added for the total NAD/NADPH measurements. Luminescence was measured for 30-60 minutes within the linear range.
A total dead cell count was performed as described in Example 817 and only alive cells were used for analysis.

[6] = Leigh GM03672 P9, assay condition A (10 mM glucose, 2 mM L-glutamine, 1 mM pyruvate, 10% FBS)
[7] = Homo sapiens, HUVEC, 24 h, 1 uM, read-out: % decrease in IL-8
[8] = Homo sapiens, HUVEC, 24 h, 10 uM, read-out: % decrease in TissueFactor
[9] = Leigh GM03672 P8, assay condition B (1 mM glucose, 2 mM L-glutamine, 1 mM pyruvate, 10% FBS)

Structure (SMILES)	activation at 10 µM [1, 6]	inhibition at 1 µM [2, 7]	inhibition at 10 µM [2, 8]	% decrease in uPAR ([3]; 1 uM)	% decrease in VCAM-1 ([3]; 1 uM, procedure of Example 832)	inhibition at 10 µM ([3]; 10 uM)	% increase in B-cell Proliferation ([4]; 1 uM)	activation at 10 µM [1, 9]	activation at 10 µM [5]	further results
COC(=O)CCC(=O)SCCNC(=O)CCNC(=O)[C@H](OC(=O)CNC(C)=O)C(C)(C)CO [Compound 1298, methyl 4-[(2-[3-[(2R)-2-[(2-acetamidoacetyl)oxy]-4-hydroxy-3,3-dimethylbutanamido]propanamido]ethyl)sulfanyl]-4-oxobutanoate]	≥ 10%	≥ 10%	≥ 10%	≥10%	≥10%	≥ 20%	≥10%	–	–	% decrease in M-CSF ([2]; 1 uM): ≥20%; % decrease in sTNFα ([2]; 1 uM): ≥10%; % decrease in Thrombomodulin ([2]; 10 uM): ≥10%; inhibition at 1 µM ([2]; Homo sapiens, HUVEC, 24 h, 1 uM, read-out: % decrease in sPGE2): ≥ 20%; inhibition at 10 µM ([2]; Homo sapiens, HUVEC, 24 h, 10 uM, read-out: % decrease in IL-1α): ≥ 10%; activation at 10 µM ([2]; Homo sapiens, HUVEC, 24 h, 10 uM, read-out: % increase in sTNFα): ≥ 10%; % decrease in LDLR ([3]; 1 uM, procedure of Example 832): ≥10%; % increase in Proliferation ([3]; 10 uM, procedure of Example 832): ≥10%; % increase in sIL-17 ([4]; 1 uM): ≥20%; % decrease in sTNFα ([4]; 10 uM): ≥10%
COC(=O)CCC(=O)SCCNC(=O)CCNC(=O)[C@H](OC(=O)CN)C(C)(C)CO [Compound 1294, methyl 4-[(2-[3-[(2R)-2-[(2-aminoacetyl)oxy]-4-hydroxy-3,3-dimethylbutanamido]propanamido]ethyl)sulfanyl]-4-oxobutanoate]	≥ 10%	≥ 10%	≥ 10%	≥10%	≥10%	≥ 20%	≥10%	–	–	activation at 1 µM ([2]; Homo sapiens, HUVEC, 24 h, 1 uM, read-out: % increase in sTNFα): ≥ 10%; inhibition at 10 µM ([2]; Homo sapiens, HUVEC, 24 h, 10 uM, read-out: % decrease in sPGE2): ≥ 10%; % decrease in Tissue Factor ([3]; 1 uM): ≥10%; % decrease in M-CSF ([3]; 1 uM, procedure of Example 832): ≥10%; % decrease in HLA-DR ([3]; 10 uM): ≥10%; % decrease in sIL-2 ([4]; 10 uM): ≥10%
COC(=O)CC(C(C)=O)C(=O)SCCNC(=O)CCNC(=O)[C@H](O)C(C)(C)CO (stereo partly drawn) [Compound 410]	–	–	–	–	–	–	–	≥ 10%	≥ 10%	–
CC(C)(CO)[C@@H](O)C(=O)NCCC(=O)NCCSC(=O)CC(=O)CCC(=O)O [Compound 2, 6-[(2-[3-[(2R)-2,4-dihydroxy-3,3-dimethylbutanamido]propanamido]ethyl)sulfanyl]-4,6-dioxohexanoic acid]	–	–	–	–	–	–	–	≥ 10%	≥ 10%	–
CC(=O)OCC(C)(C)[C@@H](O)C(=O)NCCC(=O)NCCSC(=O)CC(=O)CCC(=O)O [Compound 140, 6-[(2-[3-[(2R)-4-(acetyloxy)-2-hydroxy-3,3-dimethylbutanamido]propanamido]ethyl)sulfanyl]-4,6-dioxohexanoic acid]	–	–	–	–	–	–	–	≥ 10%	≥ 10%	–
